# Results: the supplement of paper PMC11451515
# Experiments:
# NOMO1 = assay: cell viability relative to DMSO control; higher = less cytotoxic; conditions: 48 h
# Procedure, shortened: (§1)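 NOMO1, SEM and P12-Ichikawa leukemia cells spent at least four passages adapting to each medium before use. They were seeded at 500 cells/well (NOMO1, SEM) or 1000 cells/well (P12-Ichikawa) in 5 μl in 1536-well plates and pin-dosed with library compounds in DMSO at 11 threefold steps from 47 μM down to 0.79 nM. After 48 h at 37°C, CellTiter-Glo One luminescence was read. Viability is reported as a percentage of the DMSO wells on each plate, with cell-free wells as background.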
# P12-Ichikawa = assay: as above; conditions: 48 h
# Procedure, shortened: as §1
# [1] = HPLM + 10% dialyzed FBS, 0.000781 µM
# [2] = HPLM + 10% dialyzed FBS, 0.00234 µM
# [3] = HPLM + 10% dialyzed FBS, 0.00702 µM
# [4] = HPLM + 10% dialyzed FBS, 0.0211 µM
# [5] = HPLM + 10% dialyzed FBS, 0.0632 µM
# [6] = HPLM + 10% dialyzed FBS, 0.19 µM
# [7] = HPLM + 10% dialyzed FBS, 0.569 µM
# [8] = HPLM + 10% dialyzed FBS, 1.71 µM
# [9] = HPLM + 10% dialyzed FBS, 5.12 µM
# [10] = HPLM + 10% dialyzed FBS, 15.4 µM
# [11] = HPLM + 10% dialyzed FBS, 46.1 µM
# [12] = RPMI 5 mM glucose + 10% FBS, 0.000781 µM
# [13] = RPMI 5 mM glucose + 10% FBS, 0.00234 µM
# [14] = RPMI 5 mM glucose + 10% FBS, 0.00702 µM
# [15] = RPMI 5 mM glucose + 10% FBS, 0.0211 µM
# [16] = RPMI 5 mM glucose + 10% FBS, 0.0632 µM
# [17] = RPMI 5 mM glucose + 10% FBS, 0.19 µM
# [18] = RPMI 5 mM glucose + 10% FBS, 0.569 µM
# [19] = RPMI 5 mM glucose + 10% FBS, 1.71 µM
structure (smiles),measurement,setting,value
Cn1cnc(-c2cc3nccc(Oc4ccc(NC(=S)NC(=O)Cc5ccccc5)cc4F)c3s2)c1,cell viability,NOMO1; [1],72.5%
same,cell viability,NOMO1; [2],93.2%
same,cell viability,NOMO1; [3],84.1%
same,cell viability,NOMO1; [4],92.4%
same,cell viability,NOMO1; [5],99.9%
same,cell viability,NOMO1; [6],97.1%
same,cell viability,NOMO1; [7],91.3%
same,cell viability,NOMO1; [8],86%
same,cell viability,NOMO1; [9],77.9%
same,cell viability,NOMO1; [10],62%
same,cell viability,NOMO1; [11],25.8%
same,cell viability,NOMO1; [12],77.3%
same,cell viability,NOMO1; [13],88.3%
same,cell viability,NOMO1; [14],77.4%
same,cell viability,NOMO1; [15],86.2%
same,cell viability,NOMO1; [16],89.8%
same,cell viability,NOMO1; [17],96.4%
same,cell viability,NOMO1; [18],89.6%
same,cell viability,NOMO1; [19],87.5%
same,cell viability,"NOMO1; RPMI 5 mM glucose + 10% FBS, 5.12 µM",82.2%
same,cell viability,"NOMO1; RPMI 5 mM glucose + 10% FBS, 15.4 µM",85.2%
same,cell viability,"NOMO1; RPMI 5 mM glucose + 10% FBS, 46.1 µM",20.5%
same,cell viability,"NOMO1; RPMI 5 mM glucose + 10% dialyzed FBS, 0.000781 µM",84%
same,cell viability,"NOMO1; RPMI 5 mM glucose + 10% dialyzed FBS, 0.00234 µM",81.2%
same,cell viability,"NOMO1; RPMI 5 mM glucose + 10% dialyzed FBS, 0.00702 µM",68.1%
same,cell viability,"NOMO1; RPMI 5 mM glucose + 10% dialyzed FBS, 0.0211 µM",86%
same,cell viability,"NOMO1; RPMI 5 mM glucose + 10% dialyzed FBS, 0.0632 µM",93.6%
same,cell viability,"NOMO1; RPMI 5 mM glucose + 10% dialyzed FBS, 0.19 µM",101%
same,cell viability,"NOMO1; RPMI 5 mM glucose + 10% dialyzed FBS, 0.569 µM",83%
same,cell viability,"NOMO1; RPMI 5 mM glucose + 10% dialyzed FBS, 1.71 µM",90%
same,cell viability,"NOMO1; RPMI 5 mM glucose + 10% dialyzed FBS, 5.12 µM",86.1%
same,cell viability,"NOMO1; RPMI 5 mM glucose + 10% dialyzed FBS, 15.4 µM",88.1%
same,cell viability,"NOMO1; RPMI 5 mM glucose + 10% dialyzed FBS, 46.1 µM",26.7%
same,cell viability,P12-Ichikawa; [1],79%
same,cell viability,P12-Ichikawa; [2],85.6%
same,cell viability,P12-Ichikawa; [3],77.3%
same,cell viability,P12-Ichikawa; [4],92.7%
same,cell viability,P12-Ichikawa; [5],91.4%
same,cell viability,P12-Ichikawa; [6],91.5%
same,cell viability,P12-Ichikawa; [7],94.1%
same,cell viability,P12-Ichikawa; [8],87.8%
same,cell viability,P12-Ichikawa; [9],83.9%
same,cell viability,P12-Ichikawa; [10],71.8%
same,cell viability,P12-Ichikawa; [11],15.2%
same,cell viability,P12-Ichikawa; [12],80.9%
same,cell viability,P12-Ichikawa; [13],82.9%
same,cell viability,P12-Ichikawa; [14],80.5%
same,cell viability,P12-Ichikawa; [15],87.1%
same,cell viability,P12-Ichikawa; [16],84.7%
same,cell viability,P12-Ichikawa; [17],85.2%
same,cell viability,P12-Ichikawa; [18],87.1%
same,cell viability,P12-Ichikawa; [19],92.6%
